These results are taken from patent US6355640B1, “Pyrazolopyridine adenosine antagonists” (Fujisawa Pharmaceutical Co., Ltd., priority 1993, dated 2002).

The melting point is the temperature, or range, at which the solid turns liquid. As for `O=c1ccc(-c2c(-c3ccccc3)nn3ccccc23)nn1[C@@H]1CCCC[C@H]1O` (relative stereo) [Example 5, trans-3-[2-(2-hydroxycyclohexyl)-3-oxo-2,3-dihydropyridazin-6-yl]-2-phenylpyrazolo[1,5-a]-pyridine], the melting point was in the range of 229 to 230 °C.

The compound `CCOC(=O)C=C1CCC(n2nc(-c3c(-c4ccccc4)nn4ccccc34)ccc2=O)CC1` (stereo not shown) [Example 94, 3-[2-(4-ethoxycarbonylmethylenecyclohexyl)-3-oxo-2,3-dihydropyridazin-6-yl]-2-phenylpyrazolo[1,5-a]-pyridine] registered a melting point of 166 to 168 °C.

`CC(C)(C)OC(=O)/C=C1\CCCCC1n1nc(-c2c(-c3ccccc3)nn3ccccc23)ccc1=O` (stereo not shown) [Example 95(3), (E)-3-[2-{2-(tert-Butoxycarbonylmethylene)-cyclohexyl}-3-oxo-2,3-dihydropyridazin-6-yl]-2-phenylpyrazolo[1,5-a]pyridine] came in with a melting point of 110 to 116 °C.

Compound `CN(CC(=O)O)C(=O)CC1=C(n2nc(-c3c(-c4ccccc4)nn4ccccc34)ccc2=O)CCCC1` [Example 43, 3-[2-{2-(N-carboxymethyl-N-methylcarbamoyl)methyl-1-cyclohexenyl}-3-oxo-2,3-dihydropyridazin-6-yl]-2-phenylpyrazolo[1,5-a]pyridine] displayed a melting point of 135 to 138 °C.

As to `COC(=O)C[C@H]1CC[C@H](n2nc(-c3c(-c4ccccc4)nn4ccccc34)ccc2=O)C1` (relative stereo) [Example 32, trans-3-[2-(3-Methoxycarbonylmethylcyclopentyl)-3-oxo-2,3-dihydropyridazin-6-yl]-2-phenylpyrazolo[1,5-a]-pyridine], the melting point is 105 to 107 °C.

`O=C(O)CC1=C(n2nc(-c3c(-c4ccccc4)nn4ccccc34)ccc2=O)CCCCC1` (hydrate or solvate) [Example 19, 3-[2-(2-carboxymethyl-1-cycloheptenyl)-3-oxo-2,3-dihydropyridazin-6-yl]-2-phenylpyrazolo[1,5-a]-pyridine] gave a melting point of 171 to 172 °C.

With `C=C1CCCCC1n1nc(-c2c(-c3ccccc3)nn3ccccc23)ccc1=O` (stereo not shown) [Example 93, 3-[2-(2-methylenecyclohexyl)-3-oxo-2,3-dihydropyridazin-6-yl]-2-phenylpyrazolo[1,5-a]pyridine], the melting point was 229 to 230 °C (dec.).

As for `N#CC1CCCCC1n1nc(-c2c(-c3ccccc3)nn3ccccc23)ccc1=O` (stereo not shown) [Example 108, 3-[2-(2-cyanocyclohexyl)-3-oxo-2,3-dihydropyridazin-6-yl]-2-phenylpyrazolo[1,5-a]pyridine], the melting point came out at 214 °C.

As for `CNC1CCN(C(=O)CC2=C(n3nc(-c4c(-c5ccccc5)nn5ccccc45)ccc3=O)CCCC2)CC1` (hydrate or solvate) [Example 86, 3-[2-{2-(4-Methylaminopiperidinocarbonyl)methyl-1-cyclohexenyl}-3-oxo-2,3-dihydropyridazin-6-yl]-2-phenylpyrazolo[1,5-a]pyridine], the melting point fell in the range of 101 to 105 °C.

As for `CN(C)C(=O)CC1=C(n2nc(-c3c(-c4ccccc4)nn4ccccc34)ccc2=O)CCCC1` [Example 71, 3-[2-{2-(N,N-Dimethylcarbamoyl)methyl-1-cyclohexenyl}-3-oxo-2,3-dihydropyridazin-6-yl]-2-phenylpyrazolo[1,5-a]pyridine], the melting point was 80 to 81 °C.

For `O=C(O)C1CCCCC1n1nc(-c2c(-c3ccccc3)nn3ccccc23)ccc1=O` (stereo not shown) [Example 109, 3-[2-(2-carboxycyclohexyl)-3-oxo-2,3-dihydropyridazin-6-yl]-2-phenylpyrazolo[1,5-a]pyridine], the melting point was 164 °C.

`O=C1CCCCC1n1nc(-c2c(-c3ccccc3)nn3ccccc23)ccc1=O` (single isomer, unassigned) [Example 2 (more polar compound), 3-[2-(2-oxocyclohexyl)-3-oxo-2,3-dihydropyridazin-6-yl]-2-phenylpyrazolo[1,5-a]pyridine] showed a melting point of 166 to 168 °C.

Take `O=C(O)C=C1CCC(n2nc(-c3c(-c4ccccc4)nn4ccccc34)ccc2=O)CC1` (stereo not shown) [Example 51, 3-[2-(4-Carboxymethylenecyclohexyl)-3-oxo-2,3-dihydropyridazin-6-yl]-2-phenylpyrazolo[1,5-a]pyridine]: the melting point lay in the range of 188 to 190 °C.

`COC(=O)[C@@H]1CC[C@H](n2nc(-c3c(-c4ccccc4)nn4ccccc34)ccc2=O)C(=O)C1` (relative stereo) [Example 10, cis-3-[2-(4-Methoxycarbonyl-2-oxocyclohexyl)-3-oxo-2,3-dihydropyridazin-6-yl]-2-phenylpyrazolo[1,5-a]pyridine] displayed a melting point of 164 to 165 °C.

For `O=C(CC1=C(n2nc(-c3c(-c4ccccc4)nn4ccccc34)ccc2=O)CCCC1)N1CCCC1` [Example 84, 3-[2-{2-(Pyrrolidin-1-ylcarbonyl)methyl-1-cyclohexenyl}-3-oxo-2,3-dihydropyridazin-6-yl]-2-phenylpyrazolo[1,5-a]pyridine], the melting point is 178 to 179 °C.

Compound `CCOC(=O)CN(C)C(=O)CC1=C(n2nc(-c3c(-c4ccccc4)nn4ccccc34)ccc2=O)CCCC1` [Example 68, 3-[2-{2-(N-ethoxycarbonylmethyl-N-methylcarbamoyl)methyl-1-cyclohexenyl}-3-oxo-2,3-dihydropyridazin-6-yl]-2-phenylpyrazolo[1,5-a]pyridine] displayed a melting point of 56 to 60 °C.

Turning to `O=c1ccc(-c2c(-c3ccccc3)nn3ccccc23)nn1C1CCC2(CC1)OCCO2` [Example 21, 3-[2-(4,4-Ethylenedioxycyclohexyl)-3-oxo-2,3-dihydropyridazin-6-yl]-2-phenylpyrazolo[1,5-a]pyridine], the melting point was in the range of 189 to 190 °C.

In the case of `COc1ccc(-n2nc(-c3c(-c4ccccc4)nn4ccccc34)ccc2=O)cc1` [Example 100, 3-[2-(4-Methoxyphenyl)-3-oxo-2,3-dihydropyridazin-6-yl]-2-phenylpyrazolo[1,5-a]pyridine], the melting point worked out at 158 °C.

Consider `O=C1CCCCCC1n1nc(-c2c(-c3ccccc3)nn3ccccc23)ccc1=O` (stereo not shown) [Example 11, 3-[2-(2-Oxocycloheptyl)-3-oxo-2,3-dihydropyridazin-6-yl]-2-phenylpyrazolo[1,5-a]pyridine], for which the melting point is 112 to 114 °C.

As to `O=c1ccc(-c2c(-c3ccccc3)nn3ccccc23)nn1C1CCCCC1=NO` (stereo not shown) (hydrate or solvate) [Example 89, 3-[2-(2-Hydroxyiminocyclohexyl)-3-oxo-2,3-dihydropyridazin-6-yl]-2-phenylpyrazolo[1,5-a]pyridine], the melting point was 238 to 240 °C.

The compound `O=C(O)C[C@H]1CC[C@H](n2nc(-c3c(-c4ccccc4)nn4ccccc34)ccc2=O)C1` (relative stereo) [Example 40, trans-3-[2-(3-Carboxymethylcyclopentyl)-3-oxo-2,3-dihydropyridazin-6-yl]-2-phenylpyrazolo[1,5-a]pyridine] came in with a melting point of 212 to 213 °C.

For `O=C(O)C[C@H]1CCCC[C@H]1n1nc(-c2c(-c3ccccc3)nn3ccccc23)ccc1=O` (relative stereo) [Example 38, cis-3-[2-(2-carboxymethylcyclohexyl)-3-oxo-2,3-dihydropyridazin-6-yl]-2-phenylpyrazolo[1,5-a]pyridine], the melting point lay within 252 to 253 °C.

Take `O=C(CC1=C(n2nc(-c3c(-c4ccccc4)nn4ccccc34)ccc2=O)CCCC1)N1CCSCC1` [Example 80, 3-[2-{2-(Thiomorpholin-4-ylcarbonyl)methyl-1-cyclohexenyl}-3-oxo-2,3-dihydropyridazin-6-yl]-2-phenylpyrazolo[1,5-a]pyridine]: the melting point was 180.5 to 182.5 °C.

For `O=C1NCCC1n1nc(-c2c(-c3ccccc3)nn3ccccc23)ccc1=O` (stereo not shown) [Example 23, 3-[2-(2-Oxopyrrolidin-3-yl)-3-oxo-2,3-dihydropyridazin-6-yl]-2-phenylpyrazolo[1,5-a]pyridine], the melting point was 133 to 134 °C (dec.).

On to `O=C(O)CCCC1=C(n2nc(-c3c(-c4ccccc4)nn4ccccc34)ccc2=O)CCCC1` [Example 53, 3-[2-{2-(3-Carboxypropyl)-1-cyclohexenyl}-3-oxo-2,3-dihydropyridazin-6-yl]-2-phenylpyrazolo[1,5-a]pyridine], for which the melting point fell in the range of 145 to 147 °C.

`CC(C)(C)OC(=O)CC1=CCCCC1n1nc(-c2c(-c3ccccc3)nn3ccccc23)ccc1=O` (stereo not shown) [Example 95(2), 3-[2-{2-(tert-Butoxycarbonylmethyl)-2-cyclohexen-1-yl}-3-oxo-2,3-dihydropyridazin-6-yl]-2-phenylpyrazolo-[1,5-a]pyridine] yielded a melting point of 145.5 to 147 °C.

In turn, `CCCn1c(-n2nc(-c3c(-c4ccccc4)nn4ccccc34)ccc2=O)cc(=O)n(CCC)c1=O` [Example 27, 3-[2-(1,3-Dipropyl-2,4-dioxo-1,2,3,4-tetrahydropyrimidin-6-yl)-3-oxo-2,3-dihydropyridazin-6-yl]-2-phenylpyrazolo[1,5-a]pyridine] registered a melting point of 155.3 °C.

Consider `CCCn1c(-n2nc(-c3c(-c4ccccc4)nn4ccccc34)ccc2=O)cc(=O)n(CC(=O)OC)c1=O` [Example 29, 3-[2-(2,4-Dioxo-3-methoxycarbonylmethyl-1-propyl-1,2,3,4-tetrahydropyrimidin-6-yl)-3-oxo-2,3-dihydropyridazin-6-yl]-2-phenylpyrazolo[1,5-a]pyridine], for which the melting point lay in the range of 191 to 195 °C.

Compound `O=C(O)CN1CCCC(n2nc(-c3c(-c4ccccc4)nn4ccccc34)ccc2=O)C1=O` (stereo not shown) [Example 117, 3-[2-(1-Carboxymethyl-2-oxopiperidin-3-yl)-3-oxo-2,3-dihydropyridazin-6-yl]-2-phenylpyrazolo[1,5-a]pyridine] came in with a melting point of 145 to 150 °C.

`COC(=O)COc1cccc2c1CCC(n1nc(-c3c(-c4ccccc4)nn4ccccc34)ccc1=O)C2=O` (stereo not shown) [Example 118, 3-[2-(1-Methoxycarbonylmethoxy-5-oxo-5,6,7,8-tetrahydro-6-naphthyl)-3-oxo-2,3-dihydropyridazin-6-yl]-2-phenylpyrazolo[1,5-a]pyridine] yielded a melting point of 175 to 176 °C.

`O=c1ccc(-c2c(-c3ccccc3)nn3ccccc23)nn1C1CCCCC1` [Example 1, 3-(2-cyclohexyl-3-oxo-2,3-dihydropyridazin-6-yl)-2-phenylpyrazolo[1,5-a]pyridine] showed a melting point of 115 to 117 °C.
